Laboratory results from PMC12505902, “Inhibitors of trehalose-6-phosphate synthase activity in fungal pathogens compromise thermal tolerance pathways” (mBio, 2025).

Tested on: trehalose content of wild-type C. albicans
Assay: Trehalose measurement (colorimetric glucose assay after trehalase)
Format: cell-based
Details: 0.5 mM 4456dh
Protocol: Given that 4456dh inhibits the activity of CaTps1 and CnTps1 in vitro and has bioactivity against multiple Candida and Cryptococcus species, we tested whether 4456dh affects trehalose production in cells. We quantified trehalose levels in cells treated with 4456dh at sub-lethal concentrations as determined by the MIC assays using a colorimetric spectrophotometric assay. We measured trehalose production in wild-type C. albicans at 30°C and 42°C, in the presence and absence of 4456dh. […] However, we observed a significant increase in trehalose content when C. albicans was exposed to high temperature stress (P < 0.0001; Fig. 5A).
Fig 5 4456dh treatment results in reduced trehalose accumulation and a decrease in Tps1-dependent virulence factors. […] Trehalose was measured using a colorimetric glucose assay after treatment of cultures with trehalase. […] Cells were harvested, stained in India Ink, and analyzed using differential interference contrast imaging. […]
124 technical replicates. Growth, as determined by a reading of absorbance at 600 nm, was
125 normalized to untreated controls and was corrected for the absorbance of 4456dh in the YPD […]
129 overnight cultures was quantified by measuring the OD600 and corrected for the background
130 absorbance of the medium. Antifungal potency for 4456dh was assessed by minimum inhibitory […]

SMILES: Cn1cc(-c2csc(NC(=O)Cc3ccccn3)n2)cn1 [Compound 4456dh]
- change in trehalose content (30°C): no significant change detected
- change in trehalose content (42°C): approximate twofold decrease
